The IC50 is the midpoint of a concentration-inhibition curve. A higher IC50 goes with weaker potency. Broadly, the inhibition is the change of the read-out against control, counted positive when it falls.

These results are taken from ChEMBL document CHEMBL1777698, “Synthesis and biological evaluation of unique stereodimers of sinomenine analogues as potential inhibitors of NO production” (Bioorg Med Chem, 2011).

Data set [1] relates to RAW264.7. The data set can be described thus: Inhibition of LPS-induced nitric oxide production in mouse RAW264.7 cells at 100 uM after 24 hrs by Griess reaction relative to control. The class given is functional. As to conditions: for inhibition at 100 µM: Mus musculus, RAW264.7, 24 h. On the technique in general: Nitrite, measured by Griess reagent, commonly stands in for NO production.

Data set [2] concerns RAW264.7. The data set can be described thus: Cytotoxicity against mouse RAW264.7 cells after 24 hrs by MTT assay. The class given is cell-based.
The test system of data set [3] is RAW264.7. The data set can be described thus: Inhibition of LPS-induced nitric oxide production in mouse RAW264.7 cells at 25 uM after 24 hrs by Griess reaction relative to control. As to conditions: for inhibition at 25 µM: Mus musculus, RAW264.7, 24 h. The class given is functional.
Data set [4] relates to RAW264.7. Put plainly: Inhibition of LPS-induced nitric oxide production in mouse RAW264.7 cells at 50 uM after 24 hrs by Griess reaction relative to control. The class given is functional. As to conditions: for inhibition at 50 µM: Mus musculus, RAW264.7, 24 h.
The subject of data set [5] is RAW264.7. The data set can be described thus: Inhibition of LPS-induced nitric oxide production in mouse RAW264.7 cells at 1.5625 uM after 24 hrs by Griess reaction relative to control. The class given is functional.
For data set [6], the system named is RAW264.7. The data set can be described thus: Inhibition of LPS-induced iNOS mRNA expression in mouse RAW264.7 cells by RT-PCR analysis. The class given is functional, cell-based.
Data set [7] has as its system RAW264.7. The data set can be described thus: Inhibition of LPS-induced nitric oxide production in mouse RAW264.7 cells at 12.5 uM after 24 hrs by Griess reaction relative to control. The class given is functional.
The subject of data set [8] is RAW264.7. Put plainly: Inhibition of LPS-induced nitric oxide production in mouse RAW264.7 cells at 6.25 uM after 24 hrs by Griess reaction relative to control. The class given is functional.
Data set [9] has as its system RAW264.7. The data set can be described thus: Inhibition of LPS-induced nitric oxide production in mouse RAW264.7 cells at 3.125 uM after 24 hrs by Griess reaction relative to control. The class given is functional.
Data set [10] deals with RAW264.7. Put plainly: Inhibition of LPS-induced iNOS mRNA expression in mouse RAW264.7 cells at 100 uM by RT-PCR analysis. The class given is functional, cell-based.
Data set [11] has as its system RAW264.7. The data set can be described thus: Cytotoxicity against mouse RAW264.7 cells at 6.25 uM after 24 hrs by MTT assay. The class given is cell-based. The following applies: raw264.7, 24 h.

The source made the active and inactive calls. The rule behind the calls is not given here.

On to `COC1=C[C@@H]2[C@@H]3Cc4c(-c5cc(OC)c(O)c6c5C[C@H]5[C@H]7C=C(OC)C(=O)C[C@@]67CCN5C)cc(OC)c(O)c4[C@]2(CCN3C)CC1=O` (stereo in doubt; 1a) [listing 1 of 2 here], for which the “inhibition (INH)” value in the data set on RAW264.7 [1] is given as 23.7%; with RAW264.7 [3] it was -2.9%; with RAW264.7 [4], 15%. Further, in the data set on RAW264.7 [2] (Mus musculus, RAW264.7, 24 h), the IC50 was > 100 µM.

Consider `COC1=C[C@@H]2[C@@H]3Cc4c(-c5cc(OC)c(O)c6c5C[C@H]5[C@H]7C=C(OC)C(=O)C[C@@]67CCN5C)cc(OC)c(O)c4[C@]2(CCN3C)CC1=O` (stereo in doubt; 1b), for which the “inhibition (INH)” value is -2.1% with RAW264.7 [1], -1.3% in the data set with RAW264.7 [3] and 6.6% with RAW264.7 [4].

`COc1cc(-c2cc(OC)c(O)c3c2C[C@H]2[C@H]4Cc5nc6ccccc6nc5C[C@@]34CCN2C)c2c(c1O)[C@@]13CCN(C)[C@@H](C2)[C@H]1Cc1nc2ccccc2nc1C3`: the IC50 in the data set with RAW264.7 [2] (Mus musculus, RAW264.7, 24 h) was found to be 6.3 µM. Also, in the data set on RAW264.7 [5] (Mus musculus, RAW264.7, 24 h), the inhibition at 1.5625 µM was determined as 8.4%.

On to `COc1cc(-c2cc(OC)c(O)c3c2C[C@H]2[C@H]4C[C@@H](OC)[C@H](NS(C)(=O)=O)C[C@@]34CCN2C)c2c(c1O)[C@@]13CCN(C)[C@@H](C2)[C@H]1C[C@@H](OC)[C@H](NS(C)(=O)=O)C3` (stereo in doubt; 5a), for which the inhibition at 100 µM with RAW264.7 [1] is 9.3%. The 50% inhibitory concentration (IC50) with RAW264.7 [2] (Mus musculus, RAW264.7, 24 h) is > 100 µM. Also, the “inhibition (INH)” value in the data set on RAW264.7 [3] is on record as -0.2%; with RAW264.7 [4], 0.2%.

Take `COc1cc(-c2cc(OC)c(O)c3c2C[C@H]2[C@H]4CCCC[C@@]34CCN2C)c2c(c1O)[C@]13CCCC[C@@H]1[C@H](C2)N(C)CC3` (stereo in doubt; 2a) [listing 1 of 2 here]: the inhibition entry in the data set with RAW264.7 [6] is “Dose-dependent effect”.

For `COc1ccc2c(c1O)[C@@]13CCN(C)[C@@H](C2)[C@H]1C[C@@H](OC)[C@H](NS(=O)(=O)c1ccc(C)cc1)C3`, the inhibition at 100 µM in the data set on RAW264.7 [1] is 39.8%. Further, in the data set with RAW264.7 [2] (Mus musculus, RAW264.7, 24 h), the half-inhibitory concentration (IC50) was > 100 µM. Also, the inhibition at 25 µM in the data set with RAW264.7 [3] is 10.9%. For the same compound, in the data set with RAW264.7 [4], the inhibition at 50 µM turned out to be 30%. In addition, in the data set with RAW264.7 [6], the inhibition result was “Dose-dependent effect”.

Regarding `COc1cc(-c2cc(OC)c(O)c3c2C[C@H]2[C@H]4CCCC[C@@]34CCN2C)c2c(c1O)[C@]13CCCC[C@@H]1[C@H](C2)N(C)CC3` (stereo in doubt; 2b) [listing 1 of 2 here], in the data set on RAW264.7 [6], the inhibition result is “Dose-dependent effect”.

Regarding `COc1cc(-c2cc(OC)c(O)c3c2C[C@H]2[C@H]4C[C@@H](OC)[C@H](NS(=O)(=O)c5ccc(C)cc5)C[C@@]34CCN2C)c2c(c1O)[C@@]13CCN(C)[C@@H](C2)[C@H]1C[C@@H](OC)[C@H](NS(=O)(=O)c1ccc(C)cc1)C3` (stereo in doubt; 4a), the “inhibition (INH)” value in the data set on RAW264.7 [7] was 2.6%; in the data set with RAW264.7 [3], 4.9%. The compound further had a 50% inhibitory concentration (IC50) in the data set with RAW264.7 [2] (Mus musculus, RAW264.7, 24 h) of 43.5 µM.

With `N=C(N)NN` [PIMAGEDINE], the inhibition at 100 µM with RAW264.7 [1] was 86%. The inhibition at 25 µM with RAW264.7 [3] is 52.5%. Further, in the data set with RAW264.7 [4], the inhibition at 50 µM came out at 74.9%.

In the case of `COC1=C[C@@H]2[C@@H]3Cc4c(-c5cc(OC)c(O)c6c5C[C@@H]5NCC[C@]67CC(=O)C(OC)=C[C@H]57)cc(OC)c(O)c4[C@]2(CCN3)CC1=O` (stereo in doubt; 3a), the “inhibition (INH)” value is 16% with RAW264.7 [1], -9.3% in the data set with RAW264.7 [3] and -12.6% with RAW264.7 [4]. Moreover, the IC50 in the data set with RAW264.7 [2] (Mus musculus, RAW264.7, 24 h) is > 100 µM.

In the case of `COc1cc(-c2cc(OC)c(O)c3c2C[C@H]2[C@H]4C[C@@H](OC)[C@H](NS(=O)(=O)c5ccc(C)cc5)C[C@@]34CCN2C)c2c(c1O)[C@@]13CCN(C)[C@@H](C2)[C@H]1C[C@@H](OC)[C@H](NS(=O)(=O)c1ccc(C)cc1)C3` (stereo in doubt; 4b), the “inhibition (INH)” value is on record as -4% with RAW264.7 [7] and -2.9% in the data set on RAW264.7 [3]. This compound also gave an IC50 with RAW264.7 [2] (raw264.7) of 72.9 µM. The inhibition at 50 µM with RAW264.7 [4] is -2.2%.

Turning to `COC1=C[C@@H]2[C@@H]3Cc4c(-c5cc(OC)c(O)c6c5C[C@@H]5NCC[C@]67CC(=O)C(OC)=C[C@H]57)cc(OC)c(O)c4[C@]2(CCN3)CC1=O` (stereo in doubt; 3b), the figures for the “inhibition (INH)” value in the data set on RAW264.7 [1], in the data set on RAW264.7 [3] and in the data set on RAW264.7 [4] were -7.1%, -11.6% and -11%, respectively.

On to `COc1ccc2c(c1O)[C@]13CCCC[C@@H]1[C@H](C2)N(C)CC3`, for which the inhibition at 100 µM in the data set on RAW264.7 [1] is 30.6%. In addition, the half-maximal inhibitory concentration (IC50) with RAW264.7 [2] (Mus musculus, RAW264.7, 24 h) was > 100 µM. Also, in the data set on RAW264.7 [3], the inhibition at 25 µM amounted to 12.1%. Further, in the data set on RAW264.7 [4], the inhibition at 50 µM came out at 28.1%. Further, in the data set on RAW264.7 [6], the inhibition entry is “Dose-dependent effect”.

On to `COC1=C[C@@H]2[C@@H]3Cc4c(-c5cc(OC)c(O)c6c5C[C@H]5[C@H]7C=C(OC)C(=O)C[C@@]67CCN5C)cc(OC)c(O)c4[C@]2(CCN3C)CC1=O` (stereo in doubt; 1a) [listing 2 of 2 here], for which the inhibition entry in the data set with RAW264.7 [6] was “Dose-dependent effect”.

In the case of `COc1ccc2c(c1O)[C@@]13CCN(C)[C@@H](C2)[C@H]1Cc1nc2ccccc2nc1C3`, the inhibition at 12.5 µM with RAW264.7 [7] (Mus musculus, RAW264.7, 24 h) was 1.3%. In the data set with RAW264.7 [2] (Mus musculus, RAW264.7, 24 h), this compound returned a 50% inhibitory concentration (IC50) of 57.9 µM. Moreover, in the data set with RAW264.7 [3], the inhibition at 25 µM came to 11.4%.

`COc1cc(-c2cc(OC)c(O)c3c2C[C@H]2[C@H]4CCCC[C@@]34CCN2C)c2c(c1O)[C@]13CCCC[C@@H]1[C@H](C2)N(C)CC3` (stereo in doubt; 2b) [listing 2 of 2 here] registered an IC50 with RAW264.7 [2] (raw264.7) of 14.2 µM. Also, the inhibition at 6.25 µM in the data set on RAW264.7 [8] (Mus musculus, RAW264.7, 24 h) was 35.2%. Also, the inhibition at 3.125 µM in the data set on RAW264.7 [9] (Mus musculus, RAW264.7, 24 h) turned out to be 16.9%. The “inhibition (INH)” value in the data set on RAW264.7 [5] was -4.4%.

Turning to `COC1=C[C@@H]2[C@@H]3Cc4ccc(OC)c(O)c4[C@]2(CCN3C)CC1=O` [SINOMENINE], in the data set with RAW264.7 [1], the inhibition at 100 µM stood at 12.8%. Further, the IC50 in the data set with RAW264.7 [2] (Mus musculus, RAW264.7, 24 h) was > 100 µM. Further, the inhibition entry in the data set with RAW264.7 [10] is “Active”. Also, in the data set on RAW264.7 [3], the inhibition at 25 µM was -3%. Also, the inhibition at 50 µM with RAW264.7 [4] was 0.1%.

For `COc1cc(-c2cc(OC)c(O)c3c2C[C@H]2[C@H]4C[C@@H](OC)[C@H](NS(C)(=O)=O)C[C@@]34CCN2C)c2c(c1O)[C@@]13CCN(C)[C@@H](C2)[C@H]1C[C@@H](OC)[C@H](NS(C)(=O)=O)C3` (stereo in doubt; 5b), the “inhibition (INH)” value in the data set with RAW264.7 [1] was 9.9%; with RAW264.7 [3], -8.4%; in the data set on RAW264.7 [4], 8.6%.

`COc1ccc2c(c1O)[C@@]13CCN(C)[C@@H](C2)[C@H]1C[C@@H](OC)[C@H](NS(C)(=O)=O)C3`: the inhibition at 100 µM with RAW264.7 [1] is -3.5%. The half-inhibitory concentration (IC50) in the data set on RAW264.7 [2] (Mus musculus, RAW264.7, 24 h) is > 100 µM. In addition, in the data set on RAW264.7 [3], the inhibition at 25 µM was -2.3%. The inhibition at 50 µM in the data set with RAW264.7 [4] is -3.7%.

Regarding `COC1=C[C@@H]2[C@@H]3Cc4ccc(OC)c(O)c4[C@]2(CCN3)CC1=O`, the inhibition at 100 µM with RAW264.7 [1] is 10.7%. In addition, the IC50 in the data set on RAW264.7 [2] (Mus musculus, RAW264.7, 24 h) was > 100 µM. Further, the inhibition at 25 µM in the data set on RAW264.7 [3] is -6.1%. In addition, the inhibition at 50 µM with RAW264.7 [4] is -0.8%.

Compound `COc1cc(-c2cc(OC)c(O)c3c2C[C@H]2[C@H]4CCCC[C@@]34CCN2C)c2c(c1O)[C@]13CCCC[C@@H]1[C@H](C2)N(C)CC3` (stereo in doubt; 2a) [listing 2 of 2 here] displayed a half-maximal inhibitory concentration (IC50) in the data set with RAW264.7 [2] (Mus musculus, RAW264.7, 24 h) of 9.5 µM. The Activity entry in the data set with RAW264.7 [11] was “Non-toxic”. The “inhibition (INH)” value came to 41.6% in the data set on RAW264.7 [8], 17% with RAW264.7 [9] and 2.7% with RAW264.7 [5].
